System: Human immunodeficiency virus 1
Experiment: Antiviral activity against HIV1 infected in human MT4 cells assessed as inhibition of virus-induced cytopathicity
Assay type: functional, organism-based
Details: Human immunodeficiency virus 1, MT4

Q: With CC(C)=CCn1cc2c(c1)S(=O)(=O)c1cc(Cl)ccc1NC2=O as the molecule, how does the EC50 read?
A: Its EC50 is 300 nM.
